Earlier results in paper PMC9150182 (ACS Sensors, 2022).

Key:
5-HT4 isoform g 302Y>F [1] = conditions: 302Y>F variant, COS7 cells
5-HT4 isoform g 302Y>F [2] = conditions: 302Y>F variant, COS7 cells; remark: listed apart in the source
5-HT1A = biological target: T1, 5-HT1A (Homo sapiens, UniProt P08908); conditions: yeast, Gpa1/Gαi3 chimera
T1 sequence (P08908 1-422): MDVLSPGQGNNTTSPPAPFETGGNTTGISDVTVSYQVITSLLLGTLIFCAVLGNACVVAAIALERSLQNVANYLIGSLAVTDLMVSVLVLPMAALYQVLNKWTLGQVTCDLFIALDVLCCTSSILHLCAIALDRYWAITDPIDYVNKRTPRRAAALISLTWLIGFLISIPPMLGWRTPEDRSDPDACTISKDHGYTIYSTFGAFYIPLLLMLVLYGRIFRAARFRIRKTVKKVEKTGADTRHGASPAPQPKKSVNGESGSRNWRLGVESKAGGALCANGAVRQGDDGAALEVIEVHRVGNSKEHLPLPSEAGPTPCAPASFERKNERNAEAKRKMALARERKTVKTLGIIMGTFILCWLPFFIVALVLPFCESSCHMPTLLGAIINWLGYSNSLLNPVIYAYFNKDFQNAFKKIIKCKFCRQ

| decrease of affinity to the receptor (5-HT4 isoform g 302Y>F [1]) | Structure (SMILES) | effect of variant on serotonin-induced activity (5-HT4 isoform g 302Y>F [2]) | increase over basal fluorescence after activation with serotonin (5-HT1A) |
| --- | --- | --- | --- |
| 13 fold | Cn1cc(C(=O)OCC2CCN(CCNS(C)(=O)=O)CC2)c2ccccc21 [GR113808] |  |  |
|  | NCCc1c[nH]c2ccc(O)cc12 [serotonin] | did not affect serotonin-induced activity | 300% |
